Experimental data from patent US11173196B2, “Vectors for expression of prostate-associated antigens” (Pfizer Inc., priority 2013, dated 2021).
Read-outs that look alike come from different tables or passages of the source.

Tests used:
[1] = cited from earlier work
rhesus PSMA = test: IFNγ ELISPOT from PBMCs, rhesus PSMA adenovirus vaccine with subcutaneous anti-CTLA-4 antibody; format: in vivo, Indian rhesus macaques
Experimental: Animal Treatment and Sample Collection. Five groups of male Indian rhesus macaques, seven (#1 to 7) per each test group, were immunized with an adenovirus encoding a rhesus PSMA modified polypeptide delivered by bilateral intramuscular injections (2× 5e10 V.P.). Immediately following the adenovirus injections, group 1 received vehicle, and groups 2 to 4 received bilateral subcutaneous injections of anti-CTLA-4 antibody (CP-675, 206) at doses 2× 25 mg, 2× 16.7 mg and 2× 8.4 mg respectively in proximity to the vaccine draining lymph node.
Nine days after the immunization, peripheral blood mononuclear cells (PBMCs) were isolated from each animal and were subjected to an IFNγ ELISPOT assay to measure the rhesus PSMA specific T cell responses. Briefly, 4e5 PBMCs from individual animals were plated per well with pools of rhesus PSMA specific peptides (P1, P2, P3 or R1+R2 defined in Table 24A) or nonspecific control peptides (human HER2 peptide pool) each at 2 ug/ml in IFN[…] ELISPOT plates. The plates were incubated for 16 hrs at 37° C. and 5% CO2 and washed and developed after incubation as per manufacturer's instruction. The number of IFNγ spot forming cells (SFC) was counted by CTL reader. Each condition was performed in duplicates. The average of the duplicates from the background adjusted SFC of the rhesus PSMA specific peptide pools was normalized to the response in 1e6 PBMCs.
IFNγ ELISPOT Assay Procedure. A capture antibody specific to IFNγ ([…]BD Bioscience, #51-2525kc) is coated onto a polyvinylidene fluoride (PVDF) membrane in a microplate overnight at 4° C. The plate is blocked with serum/protein to prevent nonspecific binding to the antibody. After blocking, effector cells (such as splenocytes isolated from immunized mice or PBMCs isolated from rhesus macaques) and targets (such as PSMA peptides from peptide library, target cells pulsed with antigen specific peptides or tumor cells expressing the relevant antigens) are added to the wells and incubated overnight at 37° C. in a 5% CO2 incubator. […]

[2] = cited from earlier work; remark: listed apart in the source
293 cells = test: Expression of PSMA constructs in mammalian 293 cells by FACS; format: cell-based
Experimental: The expression of the PSMA cytosolic, secreted, and modified antigens was determined by FACS. Mammalian 293 cells were transfected with the PJV7563 PMED vectors encoding the various immunogenic PSMA polypeptides. Three days later, the 293 cells were stained with mouse anti-PSMA antibody, followed with a fluorescent conjugated (FITC) rat anti-mouse secondary antibody.

5′ TCGTCGTTTTGTCGTTTTGTCGTT3′ [CpG7909]
dose limiting toxicity ([1]; single dose subcutaneous): myalgia and constitutional effects | maximum tolerated dose (MTD) ([1]; single dose subcutaneous): 0.45 mg/kg | dose well tolerated with no clinical effects and no significant toxicity ([1]; single intravenous dose): up to 1.05 mg/kg

CP-675,206: fully human IgG2 anti-CTLA-4 monoclonal antibody, CAS 745013-59-6
vaccine induced immune response compared to vaccine alone (rhesus PSMA; 16.7 mg subcutaneous (group 4), P=0.05): significantly enhanced | vaccine induced immune response compared to vaccine alone (rhesus PSMA; 33.4 mg subcutaneous (group 3), P=0.004): significantly enhanced | vaccine induced immune response compared to vaccine alone (rhesus PSMA; dose of 50 mg subcutaneous (group 2), P=0.001 by Student's T-test): significantly enhanced

CP-870893: fully human agonistic CD40 monoclonal antibody, heavy and light chain SEQ ID NO: 40 and 41
dose-limiting toxicities ([2]; human, in vivo, iv): grade 3 CRS and grade 3 urticaria | maximum tolerated dose (MTD) ([2]; phase I clinical study, intravenous infusion): 0.2 mg/kg

human PSMA modified antigen (SEQ ID NO: 9): immunogenic polypeptide of amino acids 15-750 of human PSMA, membrane-bound, expressed from DNA construct in PJV7563 vector
Average mean fluorescent intensity (293 cells; 293 cells transfected with PJV7563 vector, stained three days later with mouse anti-PSMA antibody): 12270 | expression on the cell surface (293 cells; transfected 293 cells, FACS): expressed on the cell surface
